Assay in all cases: NCI-60 cell line screen, 48 h
Assay [1] has as its system Malme-3M.
For assay [2], the system named is U-251.
Assay [3] relates to K562.
Assay [4] relates to COLO 205.
The subject of assay [5] is TK-10.
Assay [6] concerns HCT-116.
Assay [7] relates to KM12.
In assay [8] the test system is BT-549.
Assay [9] deals with Hs-578T.
Assay [10] relates to SK-MEL-28.
For assay [11], the system named is OVCAR-3.
Assay [12] concerns SR.
In assay [13] the test system is MCF7.
Assay [14] concerns NCI-H23.
For assay [15], the system named is SNB-19.
Assay [16] concerns ACHN.
In assay [17] the test system is LOX IMVI.
Assay [18] relates to MDA-MB-231.
For assay [19], the system named is SK-MEL-5.
The test system of assay [20] is MDA-N.

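1) Cells in 96-well plates. 2) Compound, 48 h, 5 concentrations. 3) Linear interpolation between surrounding doses. 4) Unreached endpoint = highest concentration. GI50 is the concentration that inhibits growth by half.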 Calls of active or inactive are those of the source. No stated cut-off is given here; in the data, active = GI50 up to about 1.1 µM and inactive = higher.

With `O=C1C(Cl)=C(N2CCN(CCOCCO)CC2)C(=O)c2ncccc21`, the GI50 in assay [1] is 7.85 µM (inactive); in [2], > 10 µM (inactive); in assay [3], > 10 µM (inactive); in [4] it was > 10 µM (inactive); in assay [5], > 10 µM (inactive); in assay [6], 5.07 µM (inactive). Besides, the GI50 in assay [7], in assay [8], in assay [9], in assay [10], in assay [11] and in assay [12] was > 10 µM (inactive) throughout. Moreover, the GI50 in assay [13], in assay [14], in [15], in assay [16], in [17] and in assay [18] was > 10 µM (inactive) each time. For the same compound, in assay [19], the GI50 is > 10 µM (inactive).

With `N=C(N)N/N=C/c1c(-c2ccc(Cl)c([N+](=O)[O-])c2)nc2sccn12`, the GI50 is 1.91 µM (inactive) in assay [1]; 1.67 µM (inactive) in assay [2]; 0.845 µM (active) in assay [3]; 1.31 µM (inactive) in [4]; 1.76 µM (inactive) in assay [5]; 1.37 µM (inactive) in [6]. For the same compound, the GI50 was 0.861 µM (active) in assay [7]; 1.89 µM (inactive) in [8]; 2.05 µM (inactive) in assay [9]; 4.08 µM (inactive) in [10]; 1.34 µM (inactive) in assay [11]; 2.05 µM (inactive) in assay [12]. For the same compound, the GI50 in [13] is 1.37 µM (inactive); in assay [14] it was 1.85 µM (inactive); in assay [15] it was 1.31 µM (inactive); in [16], 1.71 µM (inactive); in assay [17], 2.22 µM (inactive); in assay [18], 1.74 µM (inactive). Also, the GI50 in assay [19] is 1.73 µM (inactive).

Regarding `CO[C@]12C[C@H](CNC(=O)c3ccc[nH]3)O[C@H]1NC(=O)N2`, the GI50 in assay [1], in assay [2], in assay [3], in assay [4], in assay [5] and in assay [6] was > 100 µM (inactive) throughout. The GI50 is > 100 µM (inactive) in [7]; > 100 µM (inactive) in assay [8]; > 100 µM (inactive) in [9]; > 100 µM (inactive) in [11]; 9.31 µM (inactive) in assay [12]; > 100 µM (inactive) in [13]. In addition, the GI50 in assay [14], in assay [15], in assay [16], in assay [17], in assay [18] and in assay [19] was > 100 µM (inactive) in each case.

Take `CC(C)(C)OC(=O)C(C#N)C(=O)c1ccc(C(=O)O)[nH]1` (stereo not given): the GI50 was 40.4 µM (inactive) in assay [20]; 35.2 µM (inactive) in assay [1]; 30.6 µM (inactive) in assay [2]; 22.6 µM (inactive) in assay [3]; 40.2 µM (inactive) in assay [4]; 29.7 µM (inactive) in [5]. For the same compound, the GI50 was 38.4 µM (inactive) in assay [6]; 34.8 µM (inactive) in assay [7]; 48.5 µM (inactive) in [8]; 62.2 µM (inactive) in assay [10]; 29.3 µM (inactive) in assay [11]; 36.3 µM (inactive) in assay [14]. The GI50 in assay [15] was 41.5 µM (inactive); in assay [16], 32.2 µM (inactive); in assay [17], 27.7 µM (inactive); in assay [18], 29.4 µM (inactive); in assay [19], 31 µM (inactive).

In the case of `CC(C)NC(=O)OCc1c(COC(=O)NC(C)C)c(-c2ccc[n+](COC(=O)C3CC3)c2)n2c1CCC2`, the GI50 is > 100 µM (inactive) in [1]; 56 µM (inactive) in assay [2]; 32.6 µM (inactive) in [3]; 70.5 µM (inactive) in [4]; > 100 µM (inactive) in [5]; 60.5 µM (inactive) in assay [6]. The GI50 was > 100 µM (inactive) in assay [7]; 76.6 µM (inactive) in [8]; 79.3 µM (inactive) in assay [9]; > 100 µM (inactive) in assay [10]; > 100 µM (inactive) in assay [11]; 3.51 µM (inactive) in assay [12]. Also, the GI50 was 49.5 µM (inactive) in assay [13]; 29.6 µM (inactive) in assay [14]; > 100 µM (inactive) in assay [15]; 20 µM (inactive) in [16]; 38.8 µM (inactive) in [17]; > 100 µM (inactive) in [18]. Also, in assay [19], the GI50 was > 100 µM (inactive).

On to `CC1CN=C(N(Cc2ccccc2)C(=O)Nc2ccc(Cl)c(Cl)c2)S1` (stereo not given), for which the GI50 in assay [20] is 29.6 µM (inactive); in [1], 99.3 µM (inactive); in [2], 32.4 µM (inactive); in assay [3], 21.1 µM (inactive); in assay [4] it was 31.4 µM (inactive); in [5] it was 32.4 µM (inactive). For the same compound, the GI50 is 27.7 µM (inactive) in [6]; 40.7 µM (inactive) in assay [7]; 53.1 µM (inactive) in [9]; 26.1 µM (inactive) in assay [10]; 50.9 µM (inactive) in [11]; 29.1 µM (inactive) in assay [12]. In addition, the GI50 in [13] was 52.1 µM (inactive); in assay [14] it was 43.1 µM (inactive); in [15] it was 62.4 µM (inactive); in [16], 12.6 µM (inactive); in assay [17], 21.4 µM (inactive); in assay [18], 27.2 µM (inactive). The GI50 in [19] is 23.3 µM (inactive).

As for `N#CC(c1cc(Cl)ncn1)c1nc2ccccc2s1` (stereo not given), the GI50 in assay [20] is 6.03 µM (inactive); in assay [1], 10.8 µM (inactive); in assay [2] it was 4.02 µM (inactive); in assay [3], 4.93 µM (inactive); in assay [4], 14.8 µM (inactive); in [5], 4.81 µM (inactive). Further, the GI50 in assay [6] was 7.53 µM (inactive); in assay [7] it was 3.87 µM (inactive); in assay [8], 5 µM (inactive); in assay [10], 19.3 µM (inactive); in [11] it was 7.01 µM (inactive); in assay [14], 5.04 µM (inactive). The GI50 in assay [15] was 5.93 µM (inactive); in [16] it was 18.3 µM (inactive); in [17] it was 4.72 µM (inactive); in [18], 11.1 µM (inactive); in assay [19], 16.4 µM (inactive).

Regarding `Cc1c(C)c2c(c(N)c1C#N)C(=O)N(O)C2=O`, the GI50 in [1], in [2], in [3], in [4], in assay [5] and in [6] was > 100 µM (inactive) in each case. Besides, the GI50 in assay [7], in assay [8], in assay [9], in [10], in assay [11] and in assay [12] was > 100 µM (inactive) in each case. The GI50 in assay [13], in assay [14], in assay [15], in [16], in [18] and in assay [19] was > 100 µM (inactive) each time.

With `COc1ccc2c(=O)c3ccoc3[nH]c2c1`, the GI50 in [2], in assay [3], in assay [4], in assay [5], in [6] and in assay [7] was > 100 µM (inactive) each time. For the same compound, the GI50 in [8] was > 100 µM (inactive); in [9], 80.9 µM (inactive); in [10], > 100 µM (inactive); in [12] it was > 100 µM (inactive); in assay [13], > 100 µM (inactive); in assay [14], > 100 µM (inactive). For the same compound, the GI50 in assay [15], in [16], in [17], in assay [18] and in assay [19] was > 100 µM (inactive) each time.

With `O=C1CS/C(=N/N=C/c2cn(Cc3ccc(Cl)cc3Cl)c3ccccc23)N1`, the GI50 in [1] is 76.4 µM (inactive); in [2] it was 17.3 µM (inactive); in assay [3], 38.8 µM (inactive); in assay [4], > 100 µM (inactive); in assay [5] it was > 100 µM (inactive); in assay [6], 44.6 µM (inactive). Moreover, the GI50 in [7] is 54.3 µM (inactive); in assay [8] it was > 100 µM (inactive); in assay [9], 25.8 µM (inactive); in assay [10], 50.4 µM (inactive); in [11], 59 µM (inactive); in assay [12], 14.1 µM (inactive). The GI50 in assay [13] was 18.5 µM (inactive); in assay [14], 58.3 µM (inactive); in assay [15] it was 35.9 µM (inactive); in [16], 53.7 µM (inactive); in [17], 25.2 µM (inactive); in [18] it was 17 µM (inactive). Besides, in assay [19], the GI50 is 35.6 µM (inactive).

As to `CC1=C2CC3=C(C)C(=O)O[C@H]3C[C@@H](C)[C@@H]2CC1` [AMERICANOLIDE D], the GI50 in assay [1] was > 100 µM (inactive); in assay [2], > 100 µM (inactive); in assay [3], 37.8 µM (inactive); in assay [4] it was > 100 µM (inactive); in assay [5], > 100 µM (inactive); in [6], > 100 µM (inactive). Besides, the GI50 in [7] is 7.48 µM (inactive); in [8], > 100 µM (inactive); in assay [9], > 100 µM (inactive); in [10] it was > 100 µM (inactive); in [11], > 100 µM (inactive); in assay [12], 62.1 µM (inactive). Also, the GI50 is > 100 µM (inactive) in assay [14]; > 100 µM (inactive) in [15]; > 100 µM (inactive) in [16]; > 100 µM (inactive) in assay [17]; > 100 µM (inactive) in [18]; 91.8 µM (inactive) in assay [19].

The record behind these values is ChEMBL document CHEMBL1201862, “PubChem BioAssay data set” (2004).
